Assay results: patent publication US10118935B2, “Melampomagnolide B dimers” (priority 2014, dated 2018)

Tests used:
SR = experiment: NCI 60 cell line five dose, Leukemia
LOX IMVI = experiment: NCI 60 cell line five dose, Melanoma
MALME-3M = experiment: NCI 60 cell line five dose, Melanoma; details: MAL1ME−3M
UACC-257 = experiment: NCI 60 cell line five dose, Melanoma
SF-295 = experiment: NCI 60 cell line five dose, CNS Cancer
SF-539 = experiment: NCI 60 cell line five dose, CNS Cancer
U251 = experiment: NCI 60 cell line five dose, CNS Cancer
COLO 205 = experiment: NCI 60 cell line five dose, Colon Cancer
HCC-2998 = experiment: NCI 60 cell line five dose, Colon Cancer
HCT-116 = experiment: NCI 60 cell line five dose, Colon Cancer
A498 = experiment: NCI 60 cell line five dose, Renal Cancer
CAKI-1 = experiment: NCI 60 cell line five dose, Renal Cancer

## C=C1C(=O)O[C@H]2[C@H]1CC/C(COC(=O)NCCCCCCCCNC(=O)OC/C1=C/CC[C@@]3(C)O[C@H]3[C@H]3OC(=O)C(=C)[C@@H]3CC1)=C\CC[C@@]1(C)O[C@@H]21 [JVM 3-62, bis(((1aR,7aS, 10aS, 10bS, E)-1a-Methyl-8-methylene-9-oxo-1a,2,3,6,7,7a,8,9,10a,10b-decahydrooxireno[2′,3′:9,10]cyclodeca[1,2-b]furan-5-yl)methyl)octane-1,8-diyldicarbamate]
SR; Log10 Concentration −4.0
  Percent Growth: −31%
SR; Log10 Concentration −5.0
  Percent Growth: −26%
SR; Log10 Concentration −6.0
  Percent Growth: 6%
SR; Log10 Concentration −7.0
  Percent Growth: 95%
SR; Log10 Concentration −8.0
  Percent Growth: 98%
SR; molar
  GI50: 317 nM
SR; read-out: LC50, molar
  CC50: > 100 µM
LOX IMVI; Log10 Concentration −4.0
  Percent Growth: −81%
LOX IMVI; Log10 Concentration −5.0
  Percent Growth: −90%
LOX IMVI; Log10 Concentration −6.0
  Percent Growth: −69%
LOX IMVI; Log10 Concentration −7.0
  Percent Growth: 90%
LOX IMVI; Log10 Concentration −8.0
  Percent Growth: 98%
LOX IMVI; molar
  GI50: 178 nM
LOX IMVI; read-out: LC50, molar
  CC50: 761 nM
MALME-3M; Log10 Concentration −4.0
  Percent Growth: −65%
MALME-3M; Log10 Concentration −5.0
  Percent Growth: −58%
MALME-3M; Log10 Concentration −6.0
  Percent Growth: −55%
MALME-3M; Log10 Concentration −7.0
  Percent Growth: 95%
MALME-3M; Log10 Concentration −8.0
  Percent Growth: 95%
MALME-3M; molar
  GI50: 199 nM
MALME-3M; read-out: LC50, molar
  CC50: 929 nM
UACC-257; Log10 Concentration −4.0
  Percent Growth: −55%
UACC-257; Log10 Concentration −5.0
  Percent Growth: −57%
UACC-257; Log10 Concentration −6.0
  Percent Growth: 47%
UACC-257; Log10 Concentration −7.0
  Percent Growth: 89%
UACC-257; Log10 Concentration −8.0
  Percent Growth: 97%
UACC-257; molar
  GI50: 848 nM
  TGI: 2.82E−6
UACC-257; read-out: LC50, molar
  CC50: 8.51 µM
SF-295; Log10 Concentration −4.0
  Percent Growth: −87%
SF-295; Log10 Concentration −5.0
  Percent Growth: −40%
SF-295; Log10 Concentration −6.0
  Percent Growth: 87%
SF-295; Log10 Concentration −7.0
  Percent Growth: 92%
SF-295; Log10 Concentration −8.0
  Percent Growth: 85%
SF-295; molar
  GI50: 1950 nM
  TGI: 4.82E−6
SF-295; read-out: LC50, molar
  CC50: 16.2 µM
SF-539; Log10 Concentration −4.0
  Percent Growth: −83%
SF-539; Log10 Concentration −5.0
  Percent Growth: −91%
SF-539; Log10 Concentration −6.0
  Percent Growth: −27%
SF-539; Log10 Concentration −7.0
  Percent Growth: 95%
SF-539; Log10 Concentration −8.0
  Percent Growth: 89%
SF-539; molar
  GI50: 235 nM
  TGI: 5.99E−7
SF-539; read-out: LC50, molar
  CC50: 2260 nM
U251; Log10 Concentration −4.0
  Percent Growth: −77%
U251; Log10 Concentration −5.0
  Percent Growth: −79%
U251; Log10 Concentration −6.0
  Percent Growth: −18%
U251; Log10 Concentration −7.0
  Percent Growth: 91%
U251; Log10 Concentration −8.0
  Percent Growth: 96%
U251; molar
  GI50: 578 nM
  TGI: 2.00E−6
U251; read-out: LC50, molar
  CC50: 5.13 µM
COLO 205; Log10 Concentration −4.0
  Percent Growth: −65%
COLO 205; Log10 Concentration −5.0
  Percent Growth: −73%
COLO 205; Log10 Concentration −6.0
  Percent Growth: −15%
COLO 205; Log10 Concentration −7.0
  Percent Growth: 109%
COLO 205; Log10 Concentration −8.0
  Percent Growth: 104%
COLO 205; molar
  GI50: 300 nM
  TGI: 7.56E−7
COLO 205; read-out: LC50, molar
  CC50: 3.99 µM
HCC-2998; Log10 Concentration −4.0
  Percent Growth: −92%
HCC-2998; Log10 Concentration −5.0
  Percent Growth: −93%
HCC-2998; Log10 Concentration −6.0
  Percent Growth: 63%
HCC-2998; Log10 Concentration −7.0
  Percent Growth: 98%
HCC-2998; Log10 Concentration −8.0
  Percent Growth: 100%
HCC-2998; molar
  GI50: 1200 nM
  TGI: 2.52E−6
HCC-2998; read-out: LC50, molar
  CC50: 5.28 µM
HCT-116; Log10 Concentration −4.0
  Percent Growth: −86%
HCT-116; Log10 Concentration −5.0
  Percent Growth: −92%
HCT-116; Log10 Concentration −6.0
  Percent Growth: −62%
HCT-116; Log10 Concentration −7.0
  Percent Growth: 97%
HCT-116; Log10 Concentration −8.0
  Percent Growth: 98%
HCT-116; molar
  GI50: 195 nM
  TGI: 4.07E−7
HCT-116; read-out: LC50, molar
  CC50: 837 nM
A498; Log10 Concentration −4.0
  Percent Growth: −83%
A498; Log10 Concentration −5.0
  Percent Growth: −91%
A498; Log10 Concentration −6.0
  Percent Growth: 91%
A498; Log10 Concentration −7.0
  Percent Growth: 104%
A498; Log10 Concentration −8.0
  Percent Growth: 94%
A498; molar
  GI50: 1690 nM
  TGI: 3.14E−6
A498; read-out: LC50, molar
  CC50: 5.83 µM
CAKI-1; Log10 Concentration −4.0
  Percent Growth: −99%
CAKI-1; Log10 Concentration −5.0
  Percent Growth: −93%
CAKI-1; Log10 Concentration −6.0
  Percent Growth: 41%
CAKI-1; Log10 Concentration −7.0
  Percent Growth: 92%
CAKI-1; Log10 Concentration −8.0
  Percent Growth: 94%
CAKI-1; molar
  GI50: 557 nM
CAKI-1; read-out: LC50, molar
  CC50: 4.79 µM
